Measurements reported in patent US8124766B2, “Inhibitors of diacylglycerol acyltransferase” (Madrigal Pharmaceuticals, Inc., priority 2008, dated 2012).
Counter-ions that a name gives are not always drawn.

Tested on: DGAT
Test: DGAT Phospholipid FlashPlate Assay
Type: biochemical
Settings: DGAT pellet, DAG-coated PL-FlashPlate, 14C-Pal-CoA, 37° C. for 1 hour; read-out: DGAT Inhibition Activity IC50
Experimental: DGAT Phospholipid FlashPlate Assay
Materials for the assay were: PL-FlashPlate: Phospholipid FlashPlates from PerkinElmer, catalog number SMP108; DAG (1,2-Dioleoyl-sn-glycerol) 10 mM suspended in water containing 0.1% Triton X-100; ^14C-Pal-CoA (palmitoyl coenzyme A, [palmitoyl-1-^14C]) from PerkinElmer, catalog number NEC-555 with a specific activity of 55 mCi/mmol; and DGAT pellet, with a protein concentration of 9.85 mg/ml.
Aqueous buffers were prepared or purchased as follows: The coating buffer (CB) was purchased from PerkinElmer, catalog number SMP900A; the reaction buffer (RB) was 50 mM Tris-HCl, pH 7.5, 100 mM NaCl, 0.01% BSA in water; the washing buffer (WB) is 50 mM Tris-HCl, pH 7.5, 100 mM NaCl, 0.05% deoxycholic acid sodium salt in water; the dilution buffer (DB) was 50 mM Tris-HCl, pH 7.5, 100 mM NaCl, 1 mM EDTA, 0.2% Triton X-100 in water.
1,2-Dioleoyl-sn-glycerol (DAG, 10 mmoles) was diluted to 500 μM with coating buffer (CB). The diluted DAG solution was then added to 384-well PL-FlashPlates at 60 μl per well, and incubated at room temperature for 2 days. The coated plates were then washed twice with washing buffer (WB) before use. Test compounds were serial diluted to 2000, 666.7, 222.2, 74.1, 24.7, 8.2, 2.7 and 0.9 μM in 100% DMSO. Diluted compound were further diluted 10 fold with reaction buffer (RB). ^14C-Pal-CoA was diluted to 8.3 μM with RB. The DGAT pellet was diluted to 0.13 mg protein/ml with dilution buffer (DB) immediately before it was added to the PL-FlashPlates to start the reaction. 20 μl of the RB-diluted compounds (or 10% DMSO in RB for Total and Blank), 15 μl of RB diluted 14C-Pal-CoA and 15 μl of DB diluted DGAT pellet (DB without DGAT for Blanks) were transferred to each well of the PL-FlashPlates. The reaction mixtures were incubated at 37° C. for 1 hour. The reactions were stopped by washing 3 times with WB. Plates were sealed with Top-seal and read on a Topcount instrument.
Calculation of IC50: The IC50 values for each compound were generated using an Excel template. The Topcount rpm readings of Total and Blank were used as 0% and 100% inhibition. The percent inhibition values of reactions in the presence of compounds were calculated, and plotted against compound concentrations. All data were fitted into a Dose Response One Site model (4 parameter logistic model) as the following: (A+((B−A)/(1+((x/C)^D)))), with A and B as the bottom and top of the curve (highest and lowest inhibition), respectively, and C as IC50 and D as Hill Coefficient of the compound.

For `CCOC(=O)N1CC[C@H](Nc2ccc(NC(=O)c3cc4cc(OC)ccc4n3CC)cn2)C1` [Example 51, (S)-3-{5-[(1-Ethyl-5-methoxy-1H-indole-2-carbonyl)-amino]-pyridin-2-ylamino}-pyrrolidine-1-carboxylic acid ethyl ester hydrochloride], the IC50 was 343 nM.
Work on `CCOC(=O)N1CC[C@H](Nc2ccc(NC(=O)c3cc4c(OC)cc(OC)cc4n3CC)cn2)C1` [Example 52, (S)-3-{5-[(1-Ethyl-4,6-dimethoxy-1H-indole-2-carbonyl)-amino]-pyridin-2-ylamino}pyrrolidine-1-carboxylic acid ethyl ester] yielded an IC50 of 229 nM.
In the case of `CCOC(=O)N1CC[C@H](Nc2ccc(NC(=O)c3cc4c(C)cccc4n3CC)cn2)C1` [Example 53, (S)-3-{5-[(1-Ethyl-4-methyl-1H-indole-2-carbonyl)-amino]-pyridin-2-ylamino}-pyrrolidine-1-carboxylic acid ethyl ester hydrochloride], the IC50 is reported as 209 nM.
For `CCOC(=O)N1CC[C@H](Nc2ccc(NC(=O)c3cc4c(OC)c(OC)ccc4n3CC)cn2)C1` [Example 54, (S)-3-{5-[(1-Ethyl-4,5-dimethoxy-1H-indole-2-carbonyl)-amino]-pyridin-2-ylamino}pyrrolidine-1-carboxylic acid ethyl ester hydrochloride], the IC50 was 309 nM.
`CCOC(=O)N1CC[C@H](Nc2ccc(NC(=O)c3cc4c(OCC)cccc4n3CC)cn2)C1` [Example 55, (S)-3-{5-[(4-Ethoxy-1-ethyl-1H-indole-2-carbonyl)-amino]-pyridin-2-ylamino}-pyrrolidine-1-carboxylic acid ethyl ester hydrochloride] showed an IC50 of 414 nM.
Compound `CCOC(=O)N1CC[C@H](Nc2ccc(NC(=O)c3cc4cc(Cl)ccc4n3CC)cn2)C1` [Example 56, (S)-3-{5-[(5-Chloro-1-ethyl-1H-indole-2-carbonyl)-amino]-pyridin-2-ylamino}-pyrrolidine-1-carboxylic acid ethyl ester] has an IC50 of 671 nM.
`CCOC(=O)N1CC[C@H](Nc2ccc(NC(=O)c3cc4c(Cl)c(Cl)ccc4n3CC)cn2)C1` [Example 57, (S)-3-{5-[(4,5-Dichloro-1-ethyl-1H-indole-2-carbonyl)-amino]-pyridin-2-ylamino}-pyrrolidine-1-carboxylic acid ethyl ester hydrochloride] showed an IC50 of 548 nM.
With `CCn1c(C(=O)Nc2ccc(N[C@H]3CCN(C(=O)NC(C)(C)C)C3)nc2)cc2c(C)cccc21` [Example 58, 1-Ethyl-4-methyl-1H-indole-2-carboxylic acid [6-((8)-1-tert-butylcarbamoyl-pyrrolidin-3-ylamino)-pyridin-3-yl]-amide hydrochloride] the IC50 was 247 nM.
For `CCn1c(C(=O)Nc2ccc(N3CCN(C(=O)OC(C)(C)C)CC3)cc2)cc2c(Cl)c(Cl)ccc21` [Example 59, 4-{4-[(4,5-Dichloro-1-ethyl-1H-indole-2-carbonyl)-amino]-phenyl}-piperazine-1-carboxylic acid tert-butyl ester], the IC50 was 821 nM.
`CCn1c(C(=O)Nc2ccc(N3CCN(C(=O)CC(C)(C)C(=O)O)CC3)cc2)cc2c(Cl)c(Cl)ccc21` [Example 60, 4-(4-{4-[(4,5-Dichloro-1-ethyl-1H-indole-2-carbonyl)-amino]-phenyl}-piperazin-1-yl)-2,2-dimethyl-4-oxo-butyric acid] gave an IC50 of 210 nM.
`CCn1c(C(=O)Nc2ccc(C3CCN(C(=O)CC(C(=O)O)c4ccccc4)CC3)cc2)cc2c(Cl)c(Cl)ccc21` (centres unmarked) [Example 61, 4-(4-{4-[(4,5-Dichloro-1-ethyl-1H-indole-2-carbonyl)-amino]-phenyl}-piperidin-1-yl)-4-oxo-2-phenyl-butyric acid] gave an IC50 of 790 nM.
Work on `CCn1c(C(=O)Nc2ccc(C3CCN(C(=O)CC4(C(=O)O)CCCC4)CC3)cc2)cc2c(Cl)c(Cl)ccc21` [Example 62, 1-[2-(4-{4-[(4,5-Dichloro-1-ethyl-1H-indole-2-carbonyl)-amino]-phenyl}-piperidin-1-yl)-2-oxo-ethyl]-cyclopentanecarboxylic acid] yielded an IC50 of 240 nM.
With `CCn1c(C(=O)Nc2ccc(N3CCN(C(=O)CC(C(=O)O)C4CCCCC4)CC3)cc2)cc2c(Cl)c(Cl)ccc21` (centres unmarked) [Example 63, 2-Cyclohexyl-4-(4-{4-[(4,5-dichloro-1-ethyl-1H-indole-2-carbonyl)-amino]-phenyl}-piperazin-1-yl)-4-oxo-butyric acid hydrochloride] the IC50 was 351 nM.
Compound `CCn1c(C(=O)Nc2ccc(N3CCN(C(=O)CC(C(=O)O)C(C)C)CC3)cc2)cc2c(Cl)c(Cl)ccc21` (centres unmarked) [Example 64, 2-[2-(4-{4-[(4,5-Dichloro-1-ethyl-1H-indole-2-carbonyl)-amino]-phenyl}-piperazin-1-yl)-2-oxo-ethyl]-3-methyl-butyric acid] has an IC50 of 164 nM.
Work on `CCOc1cccc2c1cc(C(=O)Nc1ccc(O[C@H]3CCN(C(=O)OC(C)(C)C)C3)cc1)n2CC` [Example 65, (S)-3-{4-[(4-Ethoxy-1-ethyl-1H-indole-2-carbonyl)-amino]-phenoxy}-pyrrolidine-1-carboxylic acid tert-butyl ester] yielded an IC50 of 701 nM.
For `CCOc1cccc2c1cc(C(=O)Nc1ccc(O[C@H]3CCN(C(=O)CC(C)(C)C(=O)O)C3)cc1)n2CC` [Example 66, 4-((S)-3-{4-[(4-Ethoxy-1-ethyl-1H-indole-2-carbonyl)-amino]-phenoxy}-pyrrolidin-1-yl)-2,2-dimethyl-4-oxo-butyric acid], the IC50 was 208 nM.
For `CCOc1cccc2c1cc(C(=O)Nc1ccc(O[C@H]3CCN(c4ccc(C(=O)O)cc4)C3)cc1)n2CC` [Example 67], the IC50 was 296 nM.
`CCOc1cccc2c1cc(C(=O)Nc1ccc(N3CCN(C(=O)CC4SC(=O)NC4=O)CC3)cc1)n2CC` (centres unmarked) [Example 68, 4-Ethoxy-1-ethyl-1H-indole-2-carboxylic acid (4-{4-[2-(2,4-dioxo-thiazolidin-5-yl)-acetyl]-piperazin-1-yl}-phenyl)-amide hydrochloride] gave an IC50 of 289 nM.
In the case of `CCn1c(C(=O)Nc2ccc(N3CCN(C(=O)CC4SC(=O)NC4=O)CC3)cc2)cc2c(Cl)c(Cl)ccc21` (centres unmarked) [Example 69, 4,5-Dichloro-1-ethyl-1H-indole-2-carboxylic acid (4-{4-[2-(2,4-dioxo-thiazolidin-5-yl)-acetyl]-piperazin-1-yl}-phenyl)-amide], the IC50 is reported as 236 nM.
In the case of `CCn1c(C(=O)Nc2ccc(N3CCN(c4ccc(C(=O)O)cc4)CC3)cc2)cc2c(Cl)c(Cl)ccc21` [Example 70, 4-(4-{4-[(4,5-Dichloro-1-ethyl-1H-indole-2-carbonyl)-amino]-phenyl}-piperazin-1-yl)-benzoic acid], the IC50 is reported as 319 nM.
`COc1cccc2c(C)c(C(=O)Nc3ccc(N4CCN(C(=O)OC(C)(C)C)CC4)cc3)[nH]c12` [Example 71, 4-{4-[(7-Methoxy-3-methyl-1H-indole-2-carbonyl)-amino]-phenyl}-piperazine-1-carboxylic acid tert-butyl ester] gave an IC50 of 188 nM.
In the case of `COCCN(C)c1ccc(NC(=O)c2[nH]c3c(OC)cccc3c2C)cn1` [Example 72, 7-Methoxy-3-methyl-1H-indole-2-carboxylic acid {6-[(2-methoxy-ethyl)-methyl-amino]pyridin-3-yl}-amide], the IC50 is reported as 117 nM.
In the case of `CCOC(=O)N1CCC(Oc2ccc(NC(=O)c3[nH]c4c(OC)cccc4c3C)cc2)C1` (centres unmarked) [Example 73, 3-{4-[(7-Methoxy-3-methyl-1H-indole-2-carbonyl)-amino]-phenoxy}-pyrrolidine-1-carboxylic acid ethyl ester], the IC50 is reported as 90 nM.
Work on `COc1cccc2c(C)c(C(=O)Nc3ccc(N4CCN(C(=O)CC(C)(C)C(=O)O)CC4)cc3)[nH]c12` [Example 74, 4-(4-{4-[(7-Methoxy-3-methyl-1H-indole-2-carbonyl)-amino]-phenyl}-piperazin-1-yl)-2,2-dimethyl-4-oxo-butyric acid] yielded an IC50 of 64 nM.
For `COc1cccc2c(C)c(C(=O)Nc3ccc(N4CCN(C(=O)[C@H]5CCC[C@@H]5C(=O)O)CC4)cc3)[nH]c12` [Example 75, (1S,2S)-2-(4-{4-[(7-Methoxy-3-methyl-1H-indole-2-carbonyl)-amino]-phenyl}-piperazine-1-carbonyl)-cyclopentanecarboxylic acid], the IC50 was 372 nM.
`COc1cccc2c(C)c(C(=O)Nc3ccc(N4CCN(C(=O)[C@H]5CC[C@H](C(=O)O)CC5)CC4)cc3)[nH]c12` [Example 76, trans-4-(4-{4-[(7-Methoxy-3-methyl-1H-indole-2-carbonyl)-amino]-phenyl}-piperazine-1-carbonyl)-cyclohexanecarboxylic acid] was tested, and the IC50 was 58 nM.
